From patent US20040241225A1, “Modulation of vitamin storage” (priority 2001, published 2004)

Tests used:
[1] = Solubility of α-tocopheryl phosphate; type: physicochemical
[2] = type: physicochemical
Procedure: An extraction method was developed which gave the maximum recovery of TP. The stability of TP to the extraction methodology was tested by subjecting pure TP to the extraction protocol, virtually 100% recovery was obtained.

[3] = Liver TP level 24 h after a single dose of TP or tocopheryl acetate, quantitated by ESMS; details: rat, 24 h after administration

## α-tocopheryl phosphate [TP]
[1]; high pH
  solubility in water: soluble
[1]; low pH
  solubility in organic solvents: soluble
[2]; alkaline and acid hydrolysis conditions of standard α-tocopherol extraction procedures
  resistance to hydrolysis: resistant to all of the alkaline and acid hydrolysis conditions
[2]; conditions of the standard colorimetric α-tocopherol analysis
  resistance to oxidation: resistant to oxidation
[2]; refluxing under strongly alkaline or acidic conditions in excess of 24 hours
  cleavage of the phosphate bond: does not lead to any cleavage of the phosphate bond
[3]; i.v., single dose 3 mg/kg
  liver TP: 17 ug ug/gm
[3]; i.v., single dose 10 mg/kg
  liver TP: 24 ug ug/gm
[3]; i.v., single dose 30 mg/kg
  liver TP: 28 ug ug/gm
[3]; i.v., single dose 100 mg/kg
  liver TP: 27 ug ug/gm
[3]; oral, single dose 10 mg/kg
  liver TP: 19.18 ug ug/gm
[3]; oral, single dose 30 mg/kg
  liver TP: 18.35 ug ug/gm
